Experimental data taken from patent US4698350A, “1-ethyl-6-fluoro-1,4-dihydro- 7-(2,6-dimethyl-4-pyridinyl)-4-oxo-3-quinolinecarboxylic acid and antibacterial use thereof” (Sterling Drug Inc., priority 1984, dated 1987).
≈ marks a conversion by molar mass, not a printed value. Read-outs that look alike come from different tables or passages of the source.

What was measured:
[1] = test system: S. edidermidis; assay: In vitro MIC/MBC summary (Table II); format: cell-based, S. epidermidis; conditions: Staphylococcus epidermidis, 5 S. edidermidis strains
Procedure: (§1) Win 52,522 and Win 35,439 were solubilized in 0.1 ml of 0.5 N NaOH/mg of compound and diluted in sterile distilled water to 160 mcg/ml. Vancomycin and methicillin were solubilized in sterile distilled water to 1250 mcg/ml of base compound. The stock solutions were sterilized by filtration through membrane filters with a 0.45 μm pore size.
(§2) The bacterial cultures listed in Table I (hereinbelow) were grown overnight at 37° C. in MHB for all cultures except the Streptococcus strains. These were grown in BHI+10% NHS. The overnight broth cultures were adjusted to an optical density of 0.10 (650 nm, B L Spectronic 20) in sterile distilled water and subsequently diluted to 6.7×10^6 cells/ml in MHB or BHI+1% NHS.
(§3) Serial two-fold dilutions of the compound solutions were prepared in MHB (or in BHI+1% NHS for tests with Streptococci) and dispensed into 96-well microtiter trays in a volume of 0.1 ml/well using a Sandy Springs (Bellco Glass Co.) dispenser. The trays were then inoculated with 0.0015 ml of a suspension containing 6.7×10^6 cells/ml of the appropriate inoculum using a MIC-2000 inoculator (Dynatech Corp.) resulting in a final inoculum of approximately 1×10^4 cells/well or 1×10^5 cells/ml. The trays were incubated at 37° C. for 18-20 hours and the minimal inhibitory concentration (MIC), defined as the lowest concentration of compound to inhibit visible bacterial growth, was recorded.
(§4) After the MIC values were recorded, the contents in the microtiter trays were thoroughly mixed on a Bellco Mini-orbital Shaker (Bellco Glass Co.) for 3 min. at a setting of 8. A portion (0.0015 ml) from each well was then transferred via an MIC-2000 inoculator to plates containing MHA or BHI agar+10% NHS. The plates were incubated at 37° C. for 18-20 hrs. The minimal bactericidal concentration (MBC), defined as the lowest concentration of compound that prevented the formation of a recognizable colony on the agar surface, was recorded.

[2] = test system: Streptococcus sp.; assay: In vitro MIC/MBC summary (Table II); format: cell-based
Procedure: as §1, §2, §3, §4

[3] = test system: S. aureus; assay: In vitro MIC/MBC summary (Table II); format: cell-based; conditions: Staphylococcus aureus, 15 S. aureus strains
Procedure: as §1, §2, §3, §4

[4] = test system: Staphylococcus aureus Smith; assay: Mouse protection test, S. aureus Smith infection, single dose; format: in vivo, ICR mice; Staphylococcus aureus; conditions: single dose; for ED50: Staphylococcus aureus, 168 h, read-out: Protective Dose 50% (95% Confidence Limits); for times more efficacious than Win 35,439: S. aureus
Procedure: (§5) ICR mice, female, 18-20 grams each.
(§6) Solutions of Win 52,522 and Win 35,439 were prepared by dissolving the appropriate weight of drug in 0.3 to 0.4 ml of 1 N NaOH and then bringing the solutions to the desired volume with distilled water. Methicillin and vancomycin were dissolved directly in distilled water.
Two and one-half ml of pool were added to 247.5 ml of 5% gastric mucin to provide the test inoculum containing 2.1×10^4 cells/ml.
(§7) Mice were inoculated intraperitoneally with 0.5 ml of the bacterial test inoculum.
1. Single dose test--Mice were medicated subcutaneously or orally once (0.5 ml) one-half hour postinfection.
(§8) Deaths were recorded daily for seven days for all tests. Fifty percent protective dose values (PD50's) were calculated using probit analysis [SAS Users Guide: Statistics, 1982 Edition, SAS Institute, Inc., Cary, N.C.].

[5] = test system: Staphylococcus aureus 39881 (Methicillin-resistant); assay: Mouse protection test, S. aureus 39881 (methicillin-resistant) infection; format: in vivo, ICR mice; Staphylococcus aureus; conditions: for Survivors/Total: two doses; for ED50: Staphylococcus aureus, 168 h, read-out: Protective Dose 50% (95% Confidence Limits); for ED50 / Protective Dose 50% (95% Confidence Limits): two doses one-half and four hours postinfection; for Protective Dose 50% (95% Confidence Limits): 10080 min
Procedure: as §5, §6
The culture was streaked onto three Brain Heart Infusion Agar plates and incubated 16 hours at 37° C. The cells were washed off each plate with five ml of saline and the cell suspension was shaken with glass beads for two minutes on a paint shaker. The suspension was diluted with saline so that a […] gave a 44% T reading on a B+L Spectronic 20 (650 nm) calibrated with saline. The stock suspension was diluted 1:24 (10 ml stock suspension+230 ml 5% mucin) to obtain the test inoculum containing 1.55×10^9 cells/ml.
as §7
Mice were medicated twice: at one-half and four hours postinfection. The drugs were administered by both subcutaneous (0.2 ml) and oral (0.5 ml) routes.
as §8

[6] = test system: S. aureus 59-81; assay: In vitro antibacterial MIC/MBC test; format: cell-based; conditions: Staphylococcus aureus, 5981, S. aureus 59-81
In short: (§9)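 Overnight cultures were adjusted by OD650 and diluted, then inoculated into serially diluted compound in MHB or, for streptococci, BHI+1% NHS at about 1×10^5 cells/ml. After 18-20 hours at 37° C. the MIC was read visually, and wells were replated on agar to obtain the MBC.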

[7] = test system: S. faecalis (8043); assay: In vitro antibacterial MIC/MBC test; format: cell-based; conditions: Enterococcus faecalis, ATCC8043, S. faecalis ATCC No. 8043
In short: as §9

[8] = test system: S. pyogenes (89); assay: In vitro antibacterial MIC/MBC test; format: cell-based; conditions: Streptococcus pyogenes, S. pyogenes SWRI No. 89
In short: as §9

[9] = test system: S. pneumoniae Type III; assay: In vitro antibacterial MIC/MBC test; format: cell-based
In short: as §9

[10] = test system: S. epidermidis 1-5-H; assay: In vitro antibacterial MIC/MBC test; format: cell-based; conditions: Staphylococcus epidermidis, 15H, S. epidermidis 1-5-H
In short: as §9

[11] = test system: S. pyogenes C203; assay: In vitro antibacterial MIC/MBC test; format: cell-based; conditions: Streptococcus pyogenes, S. pyogenes C203
In short: as §9

[12] = test system: S. pyogenes 7948-15; assay: In vitro antibacterial MIC/MBC test; format: cell-based; conditions: Streptococcus pyogenes, 794815, S. pyogenes 7948-15
In short: as §9

## CCn1cc(C(=O)O)c(=O)c2cc(F)c(-c3cc(C)nc(C)c3)cc21 [Win 52,522, 1-ethyl-6-fluoro-1,4-dihydro-7-(2,6-dimethyl-4-pyridinyl)-4-oxo-3-quinolinecarboxylic acid]
[1]; read-out: MBC 50%
  MBC: 0.06 µg/mL (≈ 0.176 µM)
[1]; read-out: MBC 90%
  MBC: 0.06 µg/mL (≈ 0.176 µM)
[1]; read-out: MBC Range
  MBC: 0.03 to 0.125 µg/mL (≈ 0.0881 to 0.367 µM)
[1]; read-out: MIC 50%
  MIC50: 0.06 µg/mL (≈ 0.176 µM)
[1]; read-out: MIC 90%
  MIC90: 0.06 µg/mL (≈ 0.176 µM)
[1]; read-out: MIC Range
  MIC: 0.03 to 0.06 µg/mL (≈ 0.0881 to 0.176 µM)
[2]; 9 Streptococcus sp. strains, read-out: MBC 50%
  MBC: 0.5 µg/mL (≈ 1.47 µM)
[2]; 9 Streptococcus sp. strains, read-out: MBC 90%
  MBC: 0.5 µg/mL (≈ 1.47 µM)
[2]; 9 Streptococcus sp. strains, read-out: MBC Range
  MBC: 0.125 to 0.5 µg/mL (≈ 0.367 to 1.47 µM)
[2]; 9 Streptococcus sp. strains, read-out: MIC 50%
  MIC50: 0.25 µg/mL (≈ 0.735 µM)
[2]; 9 Streptococcus sp. strains, read-out: MIC Range
  MIC: 0.125 to 0.5 µg/mL (≈ 0.367 to 1.47 µM)
[2]; Streptococcus
  MIC90: 0.5 µg/mL (≈ 1.47 µM)
[3]; read-out: MBC Range
  MBC: 0.015 to 0.06 µg/mL (≈ 0.0441 to 0.176 µM)
[3]; read-out: MIC 50%
  MIC50: 0.015 µg/mL (≈ 0.0441 µM)
[3]; read-out: MIC 90%
  MIC90: 0.03 µg/mL (≈ 0.0881 µM)
[3]; read-out: MIC Range
  MIC: 0.008 to 0.03 µg/mL (≈ 0.0235 to 0.0881 µM)
[4]; 0.095 mg/kg sc
  Survivors/Total: 0/10
[4]; 0.19 mg/kg po
  Survivors/Total: 0/10
[4]; 0.19 mg/kg sc
  Survivors/Total: 0/10
[4]; 0.39 mg/kg po
  Survivors/Total: 0/10
[4]; 0.39 mg/kg sc
  Survivors/Total: 2/10
[4]; 0.78 mg/kg po
  Survivors/Total: 0/10
[4]; 0.78 mg/kg sc
  Survivors/Total: 4/10
[4]; 1.56 mg/kg po
  Survivors/Total: 7/10
[4]; 1.56 mg/kg sc
  Survivors/Total: 10/10
[4]; 3.13 mg/kg po
  Survivors/Total: 10/10
[4]; po
  ED50: ~1.4 mg/kg
  times more efficacious than Win 35,439: 3.9 times
[4]; sc
  ED50: 0.8 mg/kg
  times more efficacious than Win 35,439: 3.6 times
[5]; 0.19 mg/kg po
  Survivors/Total: 0/10
[5]; 0.19 mg/kg sc
  Survivors/Total: 0/10
[5]; 0.39 mg/kg po
  Survivors/Total: 0/10
[5]; 0.39 mg/kg sc
  Survivors/Total: 0/10
[5]; 0.78 mg/kg po
  Survivors/Total: 1/10
[5]; 0.78 mg/kg sc
  Survivors/Total: 2/10
[5]; 1.56 mg/kg po
  Survivors/Total: 4/10
[5]; 1.56 mg/kg sc
  Survivors/Total: 10/10
[5]; 3.13 mg/kg po
  Survivors/Total: 10/10
[5]; 3.13 mg/kg sc
  Survivors/Total: 9/10
[5]; 6.25 mg/kg po
  Survivors/Total: 10/10
[5]; 6.25 mg/kg sc
  Survivors/Total: 10/10
[5]; po
  ED50: 1.6 mg/kg
  Protective Dose 50% (95% Confidence Limits): 1.6(1.3-2.4) mg/kg
[5]; sc
  ED50: 1.1 mg/kg
  times more active than Win 35,439: 4.5 times
  times more efficacious/active than vancomycin: 16 times
  Protective Dose 50% (95% Confidence Limits): 1.1(0.1-4.1) mg/kg
[5]; methicillin-resistant S. aureus infection in mice
  times more efficacious than methicillin: > 91 times
[6]; read-out: MBC
  MBC: 0.03 µg/mL (≈ 0.0881 µM)
[6]; read-out: MIC
  MIC: 0.015 µg/mL (≈ 0.0441 µM)
[7]; read-out: MBC
  MBC: 0.5 µg/mL (≈ 1.47 µM)
[7]; read-out: MIC
  MIC: 0.25 µg/mL (≈ 0.735 µM)
[8]; read-out: MBC
  MBC: 0.5 µg/mL (≈ 1.47 µM)
[8]; read-out: MIC
  MIC: 0.5 µg/mL (≈ 1.47 µM)
[9]; Streptococcus pneumoniae, S. pneumoniae Type III, read-out: MBC
  MBC: 0.5 µg/mL (≈ 1.47 µM)
[9]; Streptococcus pneumoniae, S. pneumoniae Type III, read-out: MIC
  MIC: 0.5 µg/mL (≈ 1.47 µM)
[9]; in vitro, S. pneumoniae type III
  times less potent than vancomycin: 8 times
[10]; read-out: MBC
  MBC: 0.06 µg/mL (≈ 0.176 µM)
[10]; read-out: MIC
  MIC: 0.06 µg/mL (≈ 0.176 µM)
[11]; read-out: MBC
  MBC: 0.5 µg/mL (≈ 1.47 µM)
[11]; read-out: MIC
  MIC: 0.5 µg/mL (≈ 1.47 µM)
[12]; read-out: MBC
  MBC: 0.5 µg/mL (≈ 1.47 µM)
[12]; read-out: MIC
  MIC: 0.5 µg/mL (≈ 1.47 µM)
